Experimental data: patent US20250026759A1 (Merck Sharp & Dohme LLC, priority 2023, published 2025)
Like-named read-outs stand apart in the source and are kept apart here.

System: PBMCs infected with VSV-G pseudotyped HIV virus (VSV-G/pNLG1-P2A-ΔEnv)
Assay: cells
Format: cell-based, human
Settings: read-out: TACK EC50

Work on `O=C1Nc2cc(Cn3nccc3CO)c(F)cc2[C@@](C#CC2CC2)(C(F)(F)F)N1` (single isomer, unassigned) [Example 5] yielded an EC50 (Homo sapiens, PBMC) of 109 nM.
Compound `O=C1Nc2cc(Cn3ccc(CO)n3)c(F)cc2[C@@](C#CC2CC2)(C(F)(F)F)N1` (single isomer, unassigned) [Example 6] has an EC50 (Homo sapiens, PBMC) of 17.1 nM.
`O=C1Nc2cc(Cn3c(=O)[nH]c4cccnc43)c(F)cc2[C@@](C#CC2CC2)(C(F)(F)F)N1` (single isomer, unassigned) [Example 7] was tested, and the EC50 (Homo sapiens, PBMC) was 12 nM.
Work on `O=C1Nc2cc(Cn3c(=O)[nH]c4ncccc43)c(F)cc2[C@@](C#CC2CC2)(C(F)(F)F)N1` (single isomer, unassigned) [Example 8] yielded an EC50 (Homo sapiens, PBMC) of 38.7 nM.
For `O=C1Nc2cc(Cn3ncc4c3CCOC4)c(F)cc2[C@@](C#CC2CC2)(C(F)(F)F)N1` (single isomer, unassigned) [Example 22], the EC50 (Homo sapiens, PBMC) was 60.5 nM.
`O=C1Nc2cc(Cn3cc4c(n3)CCOC4)c(F)cc2[C@@](C#CC2CC2)(C(F)(F)F)N1` (single isomer, unassigned) [Example 23] showed an EC50 (Homo sapiens, PBMC) of 21.2 nM.
For `O=C1Nc2cc(Cn3ncc4ccncc43)c(F)cc2[C@@](C#CC2CC2)(C(F)(F)F)N1` (single isomer, unassigned) [Example 25], the EC50 (Homo sapiens, PBMC) was 59.9 nM.
Compound `O=C1Nc2cc(Cn3cc4ccncc4n3)c(F)cc2[C@@](C#CC2CC2)(C(F)(F)F)N1` (single isomer, unassigned) [Example 26] has an EC50 (Homo sapiens, PBMC) of 13.6 nM.
`CC(F)(F)[C@@]1(C#CC2CC2)NC(=O)Nc2cc(Cn3cncc3CO)c(F)cc21` (single isomer, unassigned) [Example 50] showed an EC50 (Homo sapiens, PBMC) of 68.1 nM.
In the case of `CC(F)(F)[C@@]1(C#CC2CC2)NC(=O)Nc2cc(Cn3cnc(CO)c3)c(F)cc21` (single isomer, unassigned) [Example 51], the EC50 (Homo sapiens, PBMC) is reported as 107 nM.
With `COC(C)c1ccn(Cc2cc3c(cc2F)[C@@](C#CC2CC2)(C(C)(F)F)NC(=O)N3)n1` (single isomer, unassigned) [Example 58, (S)-4-(cyclopropylethynyl)-4-(1,1-difluoroethyl)-6-fluoro-7-((3-((R or S)-1-methoxyethyl)-1H-pyrazol-1-yl)methyl)-3,4-dihydroquinazolin-2(1H)-one] the EC50 was 25 nM.
In the case of `COC(C)c1ccn(Cc2cc3c(cc2F)[C@@](C#CC2CC2)(C(C)(F)F)NC(=O)N3)n1` (single isomer, unassigned) [Example 59, (S)-4-(cyclopropylethynyl)-4-(1,1-difluoroethyl)-6-fluoro-7-((3-((S or R)-1-methoxyethyl)-1H-pyrazol-1-yl)methyl)-3,4-dihydroquinazolin-2(1H)-one], the EC50 is reported as 55.6 nM.
In the case of `CC(O)c1ccn(Cc2cc3c(cc2F)[C@@](C#CC2CC2)(C(C)(F)F)NC(=O)N3)n1` (single isomer, unassigned) [Example 72, (S)-4-(cyclopropylethynyl)-4-(1,1-difluoroethyl)-6-fluoro-7-((3-((S or R)-1-hydroxyethyl)-1H-pyrazol-1-yl)methyl)-3,4-dihydroquinazolin-2(1H)-one], the EC50 (Homo sapiens, PBMC) is reported as 46.2 nM.
In the case of `CC(O)c1ccn(Cc2cc3c(cc2F)[C@@](C#CC2CC2)(C(C)(F)F)NC(=O)N3)n1` (single isomer, unassigned) [Example 73, (S)-4-(cyclopropylethynyl)-4-(1,1-difluoroethyl)-6-fluoro-7-((3-((R or S)-1-hydroxyethyl)-1H-pyrazol-1-yl)methyl)-3,4-dihydroquinazolin-2(1H)-one], the EC50 is reported as 24.5 nM.
With `CC(F)(F)[C@@]1(C#CC2CC2)NC(=O)Nc2cc(Cn3ncc(F)c3C(N)=O)c(F)cc21` (single isomer, unassigned) [Example 103] the EC50 (Homo sapiens, PBMC) was 30.2 nM.
For `CC(F)(F)[C@@]1(C#CC2CC2)NC(=O)Nc2cc(Cn3cc(F)c(C(N)=O)n3)c(F)cc21` (single isomer, unassigned) [Example 104], the EC50 (Homo sapiens, PBMC) was 14.6 nM.
`CC(F)(F)[C@@]1(C#CC2CC2)NC(=O)Nc2cc(Cn3ncnc3N)c(F)cc21` (single isomer, unassigned) [Example 105] gave an EC50 (Homo sapiens, PBMC) of 10.9 nM.
`Nc1ncn(Cc2cc3c(cc2F)[C@@](C#CC2CC2)(C(F)(F)F)NC(=O)N3)n1` (single isomer, unassigned) [Example 107] was tested, and the EC50 (Homo sapiens, PBMC) was 17.4 nM.
`CC(F)(F)[C@@]1(C#CC2CC2)NC(=O)Nc2cc(Cn3cnc(C(N)=O)n3)c(F)cc21` (single isomer, unassigned) [Example 113] showed an EC50 (Homo sapiens, PBMC) of 51.2 nM.
Compound `CC(F)(F)[C@@]1(C#CC2CC2)NC(=O)Nc2cc(Cn3ncnc3C(N)=O)c(F)cc21` (single isomer, unassigned) [Example 114] has an EC50 (Homo sapiens, PBMC) of 18.5 nM.
`NC(=O)c1ncnn1Cc1cc2c(cc1F)[C@@](C#CC1CC1)(C(F)(F)F)NC(=O)N2` (single isomer, unassigned) [Example 116] gave an EC50 (Homo sapiens, PBMC) of 31.8 nM.
In the case of `NC(=O)c1ncn(Cc2cc3c(cc2F)[C@@](C#CC2CC2)(C(F)(F)F)NC(=O)N3)n1` (single isomer, unassigned) [Example 117], the EC50 (Homo sapiens, PBMC) is reported as 31.6 nM.
`CN1C(=O)NC(=O)C1Cc1cc2c(cc1F)[C@@](C#CC1CC1)(C(C)(F)F)NC(=O)N2` (single isomer, unassigned) [Example 124, (S or R)-5-(((S)-4-(cyclopropylethynyl)-4-(1,1-difluoroethyl)-6-fluoro-2-oxo-1,2,3,4-tetrahydroquinazolin-7-yl)methyl)-1-methylimidazolidine-2,4-dione] showed an EC50 (Homo sapiens, PBMC) of 90.4 nM.
In the case of `CN1C(=O)NC(=O)C1Cc1cc2c(cc1F)[C@@](C#CC1CC1)(C(C)(F)F)NC(=O)N2` (single isomer, unassigned) [Example 125, (R or S)-5-(((S)-4-(cyclopropylethynyl)-4-(1,1-difluoroethyl)-6-fluoro-2-oxo-1,2,3,4-tetrahydroquinazolin-7-yl)methyl)-1-methylimidazolidine-2,4-dione], the EC50 is reported as 111 nM.
`COc1ncn(Cc2cc3c(cc2F)[C@@](C#CC2CC2)(C(C)(F)F)NC(=O)N3)n1` [Example 1, (S)-4-(cyclopropylethynyl)-4-(1,1-difluoroethyl)-6-fluoro-7-((3-methoxy-1H-1,2,4-triazol-1-yl)methyl)-3,4-dihydroquinazolin-2(1H)-one] gave an EC50 (Homo sapiens, PBMC) of 14.6 nM.
With `CC(F)(F)[C@@]1(C#CC2CC2)NC(=O)Nc2cc(Cn3ccc(CO)n3)c(F)cc21` [Example 2, (S)-4-(cyclopropylethynyl)-4-(1,1-difluoroethyl)-6-fluoro-7-((3-(hydroxymethyl)-1H-pyrazol-1-yl)methyl)-3,4-dihydroquinazolin-2(1H)-one] the EC50 (Homo sapiens, PBMC) was 14.5 nM.
`COc1cnn(Cc2cc3c(cc2F)[C@@](C#CC2CC2)(C(C)(F)F)NC(=O)N3)c1` [Example 3, (S)-4-(cyclopropylethynyl)-4-(1,1-difluoroethyl)-6-fluoro-7-((4-methoxy-1H-pyrazol-1-yl)methyl)-3,4-dihydroquinazolin-2(1H)-one] was tested, and the EC50 (Homo sapiens, PBMC) was 14.4 nM.
`CC(F)(F)[C@@]1(C#CC2CC2)NC(=O)Nc2cc(Cn3cnc(CO)n3)c(F)cc21` [Example 4, (S)-4-(cyclopropylethynyl)-4-(1,1-difluoroethyl)-6-fluoro-7-((3-(hydroxymethyl)-1H-1,2,4-triazol-1-yl)methyl)-3,4-dihydroquinazolin-2(1H)-one] was tested, and the EC50 (Homo sapiens, PBMC) was 67.7 nM.
Work on `CN1CC(=O)N(Cc2cc3c(cc2F)[C@@](C#CC2CC2)(C(F)(F)F)NC(=O)N3)C1=O` [Example 9, (S)-3-((4-(cyclopropylethynyl)-6-fluoro-2-oxo-4-(trifluoromethyl)-1,2,3,4-tetrahydroquinazolin-7-yl)methyl)-1-methylimidazolidine-2,4-dione] yielded an EC50 (Homo sapiens, PBMC) of 74.6 nM.
In the case of `CC(F)(F)[C@@]1(C#CC2CC2)NC(=O)Nc2cc(Cn3cc(-c4ccncc4)cn3)c(F)cc21` [Example 10, (S)-4-(cyclopropylethynyl)-4-(1,1-difluoroethyl)-6-fluoro-7-((4-(pyridin-4-yl)-1H-pyrazol-1-yl)methyl)-3,4-dihydroquinazolin-2(1H)-one], the EC50 (Homo sapiens, PBMC) is reported as 37.2 nM.
Work on `Cc1cnn(Cc2cc3c(cc2F)[C@@](C#CC2CC2)(C(C)(F)F)NC(=O)N3)c1` [Example 11, (S)-4-(cyclopropylethynyl)-4-(1,1-difluoroethyl)-6-fluoro-7-((4-methyl-1H-pyrazol-1-yl)methyl)-3,4-dihydroquinazolin-2(1H)-one] yielded an EC50 (Homo sapiens, PBMC) of 46.6 nM.
`CC(F)(F)[C@@]1(C#CC2CC2)NC(=O)Nc2cc(Cn3c(=O)[nH]c4ccccc43)c(F)cc21` [Example 12, (S)-4-(cyclopropylethynyl)-4-(1,1-difluoroethyl)-6-fluoro-7-((2-oxo-2,3-dihydro-1H-benzo[d]imidazol-1-yl)methyl)-3,4-dihydroquinazolin-2(1H)-one] showed an EC50 (Homo sapiens, PBMC) of 19.6 nM.
Work on `O=C1Nc2cc(Cn3c(=O)oc4ccccc43)c(F)cc2[C@@](C#CC2CC2)(C(F)(F)F)N1` [Example 13, (S)-3-((4-(cyclopropylethynyl)-6-fluoro-2-oxo-4-(trifluoromethyl)-1,2,3,4-tetrahydroquinazolin-7-yl)methyl)benzo[d]oxazol-2(3H)-one] yielded an EC50 (Homo sapiens, PBMC) of 14.3 nM.
For `CC(F)(F)[C@@]1(C#CC2CC2)NC(=O)Nc2cc(CN3C(=O)CNC3=O)c(F)cc21` [Example 14, (S)-3-((4-(cyclopropylethynyl)-4-(1,1-difluoroethyl)-6-fluoro-2-oxo-1,2,3,4-tetrahydroquinazolin-7-yl)methyl)imidazolidine-2,4-dione], the EC50 (Homo sapiens, PBMC) was 24.8 nM.
`CC(F)(F)[C@@]1(C#CC2CC2)NC(=O)Nc2cc(Cn3cc(F)cn3)c(F)cc21` [Example 15, (S)-4-(cyclopropylethynyl)-4-(1,1-difluoroethyl)-6-fluoro-7-((4-fluoro-1H-pyrazol-1-yl)methyl)-3,4-dihydroquinazolin-2(1H)-one] showed an EC50 (Homo sapiens, PBMC) of 27.3 nM.
`CC(F)(F)[C@@]1(C#CC2CC2)NC(=O)Nc2cc(Cn3cc(Cl)cn3)c(F)cc21` [Example 16, (S)-7-((4-chloro-1H-pyrazol-1-yl)methyl)-4-(cyclopropylethynyl)-4-(1,1-difluoroethyl)-6-fluoro-3,4-dihydroquinazolin-2(1H)-one] was tested, and the EC50 (Homo sapiens, PBMC) was 32.4 nM.
`CC(F)(F)[C@@]1(C#CC2CC2)NC(=O)Nc2cc(Cn3ccc(C#N)n3)c(F)cc21` [Example 17, (S)-1-((4-(cyclopropylethynyl)-4-(1,1-difluoroethyl)-6-fluoro-2-oxo-1,2,3,4-tetrahydroquinazolin-7-yl)methyl)-1H-pyrazole-3-carbonitrile] was tested, and the EC50 (Homo sapiens, PBMC) was 46.3 nM.
